Assay results taken from US20150278438A1, “GENETIC PREDICTORS OF RESPONSE TO TREATMENT WITH CRHR1 ANTAGONISTS” (MAX-PLANCK-GESELLSCHAFT ZUR FÖRDERUNG DER WISSENSCHAFTEN …, priority 2012, published 2015).

Experiments:
[1] = tested on: mice overexpressing CRH in the forebrain; conditions: Kimura et al. 2010; cited from earlier work
[2] = tested on: CRH-COE^CNS mice; experiment: Sleep EEG/EMG recording of REMS activity in CRH-COE^CNS mice treated with CRH-R1 antagonist; format: in vivo, mouse; conditions: 50 mg/kg/d via drinking water; for REMS activity: CRH-COE^CNS mice, versus baseline, significant beginning with treatment day two (DMP-696 P<0.05; SSR125543 P≦0.035)
Procedure: Experiments were conducted with two different mouse lines of excessive central CRH secretion and their respective control littermates (CL). Mice of the CRH-COE^CNS line are characterised by CRH-overexpression within the whole CNS, whereas mice of the Cor26 CRH line display a CRH-overexpression specific to CRH-ergic neurons of the CNS. Three different CRHR1 antagonists were tested. […] In all cases, animals were left to recover from EEG/EMG-electrode implantation for two weeks, after which two days of baseline recording were initiated. Treatment with CRH-R1 antagonist or respective vehicle control commenced thereafter for five consecutive days. Antagonists were applied through the drinking water at a daily dose of 50 mg/kg body weight. EEG and EMG recordings were manually scored as wake, non-REMS (NREMS), and REMS in four second epochs by an experienced evaluator.

[3] = tested on: Cor26 CRH mice; experiment: Sleep EEG/EMG recording of REMS levels in Cor26 CRH mice treated with CRH-R1 antagonist; conditions: 50 mg/kg/d via drinking water; for REMS levels: CRH-overexpressing Cor26 CRH mice

Row | SMILES | REM enhancement [1] | REMS activity, treatment day three ([2]; CRH-COE^CNS animals, treatment day three) | REMS activity ([2]; 50 mg/kg/day) | REMS activity ([2]; listed as DMP696, 50 mg/kg/day) | REMS levels ([3]; 50 mg/kg/day) | REMS levels ([3]; listed as CP-316311, 50 mg/kg/day) | REMS levels, area under the curve (AUC) within the light period, baseline versus treatment day three ([3]; Cor26 CRH mice, P=0.006)
1 | COCC(COC)Nc1nc(C)nc2c(-c3ccc(Cl)cc3Cl)c(C)nn12 [DMP-696] | reverse the REM enhancement | strongest suppression | significant decrease | suppressed | – | – | –
2 | CCC(CC)Oc1cc(C)nc(Oc2c(C)cc(C)cc2C)c1C [CP-316,311] | – | – | – | – | apparently seemed weak | suppressed | significant decrease
